From patent US20070123467A1, “Amniotic-derived peptide and uses thereof” (priority 2003, published 2007)
Residues, ends and D or L forms follow the SMILES beside them.

Experiments:
[1] = tested on: auto-immune diabetes in the NOD mouse; conditions: in vivo
Excerpt: (§3) Female NOD mice (Charles River, Calco, Italy) were maintained under standard laboratory conditions (non-specific pathogen free) with free access to food and water. During the study period of diabetes prevention the mice were screened for diabetes development twice a week by means of glycosuria followed, when positive, by measurement of glycaemia. Mice are diagnosed as diabetic when fasting glycaemia is above 12 mmol/l for 2 consecutive days.
(§4) Euglycaemic female NOD mice were randomly allocated into 4 different groups receiving either LAP or vehicle starting at the 4th or at the 12th week of age. Because insulitis is virtually absent in 4-week-old NOD mice and is actively ongoing at 12 weeks, this approach allowed us to investigate the effects of LAP-treatment in both the early and late diabetogenic stages of the NOD mouse. The readout of the early prohylactic treatment was to evaluate the effect of LAP on development of insulitis, while the readout of the late prophylactic treatment was to evaluate the effect of LAP on the incidence of clinically overt diabetes.
(§5) For the early prophylactic treatment 4-week-old NOD mice were treated with either 10 mcg LAP (dissolved and diluted [100 mcl final volume] as described in Example 14 and 15) or 100 mcl vehicle, daily, six times weekly until the age of 14 weeks. At this point, the euglycaemic mice were sacrificed and their pancreatic specimens collected for histological examination of insulitis.
(§6) For the late prophylactic treatment, 12-week-old NOD mice were randomly divided into two experimental groups, one treated with LAP and the other with vehicle, under the same experimental regime described for the early prophylactic treatment.
(§7) Histological examination of the pancreatic islets was performed in a blind fashion by two pathologists unaware of the status and/or the treatment of the animals, as described previously (See 16-3 to 16-5). The degree of mononuclear cell infiltration is graded as follows: 0, no infiltrate; 1, peri-ductular infiltrate; 2, peri-islet infiltrate; 3, intra-islet infiltrate; 4, intra-islet infiltrate associated with β-cell destruction. At least 12 islets are counted for each mouse. The mean score for each pancreas is calculated by dividing the total score by the numbers of islets.

[2] = tested on: auto-immune diabetes in the NOD mouse; assay: LAP in development of insulitis and auto-immune diabetes in NOD mouse (Example 16)
Excerpt: as §3, §4, §5, §6, §7

[3] = tested on: TNF-α; assay: LPS-induced blood levels of TNF-α, ELISA (Example 14); type: in vivo, mouse; conditions: 10 mcg LAP
Procedure: (§1) Plasma samples were obtained by blood obtained from individual mice at sacrifice. TNF-α, IFN-γ and IL-10 were measured by mouse specific solid-phase ELISA according to the manufacturer's (Celbio Euroclone, Milan, Italy) instructions. Intra and inter-assays coefficient of variations were within 10%. The limit of sensitivity of the assays were 7 pg/ml. For statistical analysis, samples with undetectable amounts of cytokine were assigned 7 pg as theoretical value.
(§2) Injection of LPS is associated with a marked increase in the blood levels of both type 1 (IFN-γ, TNF-α, IL-1) and type 2 (IL-10) cytokines that occurs with different kinetic after the inoculation of the toxin. To evaluate the effects of LAP treatment on LPS-induced cytokine increase in the circulation of the mice, experiments were carried out where mice treated with 10 mcg LAP or its vehicle, were sacrificed just before injection of a sublethal dose of LPS one hour after treatment with either LAP or PBS (T0) and then 2 (T2) and 8 (T8) hours after LPS.

[4] = tested on: CD4+CD25− T cells; assay: T cell proliferation assay, thymidine incorporation (Example 21); type: cell-based, Balb/c mouse
Procedure: T cell proliferation assays were set up as follows. Antigen presenting cells (APCs) obtained as single cell suspension from Balb/c mouse spleens were pulsed with fecal extract (from Balb/C mice) overnight in 24 well-plate (1×10^6 cells/ml with 400 μg/ml of extract). Responding cells were obtained from Balb/c mouse spleens as CD4^+CD25^− T cells. CD4+ T cells were selected by DYNABEADS, and CD4^+CD25^− T cells were then selected using labelled anti-CD25 antibody (e.g. PE-labelled anti-CD25). Responding T cells were co-cultured with APC in 96 round bottom well-plate (3.3×10^4 responding cell/1×10^5 APC in 200 μl) in the presence or absence of LAP for 5 days. Immune cell proliferation was then determined by standard thymidine incorporation assays.

[5] = tested on: IFN-γ; assay: LPS-induced blood levels of IFN-γ, ELISA (Example 14); type: in vivo, mouse; conditions: 10 mcg LAP; 2 and 8 hours after LPS
Procedure: as §1, §2

[6] = tested on: LPS-induced lethality; assay: Time and dose effects of LAP on LPS-induced lethality (Example 14); type: in vivo, CD1 mice; conditions: 1 mg LPS i.p.
Procedure: To induce lethal endotoxemia, the mice were injected i.p. with 1 mg lipopolysaccharide (LPS, Cod. L6011, lot 112K4063, Sigma Chimica, Milan, Italy). LAP was provided by Lajor BioTech (Pittsburgh, Pa. USA), dissolved volume/volume in trifluoroacetic acid 0.1% in water and Na2HPO4 and injected ip in a final volume of 100 mcl.
Statistical analysis was performed by chi-square for lethality and one way ANOVA for cytokine measurements. P values lower than 0.05 were taken as significant.

[7] = tested on: IL-10; assay: Blood levels of IL-10, ELISA (Example 14); type: in vivo, mouse
Procedure: as §1, §2

[8] = tested on: Con A-induced hepatitis; assay: Con A-induced hepatitis in mice, plasma ALAT, LAP prophylaxis (Example 15); type: in vivo, CD1 male mice
Procedure: Eight weeks old outbred CD1 male mice (Charles River, Calco, Italy) were kept under standard laboratory conditions (non-specific pathogen free) at 24° C. with free access to food and water. The food was withdrawn 16 hours prior to the experiments.
Con A (Sigma Chemical, St. Louis, Mo.), dissolved in sterile phosphate-buffered saline (PBS) was injected into the tail veins. The groups were treated with either LAP (dissolved volume/volume in trifluoroacetic acid 0.1% in water and Na2HPO4 and then further diluted in water for injection), or its vehicle, 1 hour prior to and one hour after Con A. An additional group of control mice was injected with Con A and received no treatment. Finally, other two groups of mice were also included for comparison that were either injected i.v. with PBS or received no treatment (Table 8). LAP, its vehicle, PBS and Con A were all injected in a final volume of 100 microliter (mcl). The animals were sacrificed for blood collection 8 hours after Con A injection, when biochemical and signs (transaminases increase) of hepatic injury are pronounced (15-1 to 15-9). Mice dead before sacrifice (Table 8) were not included.
Plasma alanine aminotransferase (ALAT) activity was determined by a standard photometric assay using a bichromatic analyzer. Results are expressed in U/L
Results are shown as mean values ±SD. Statistical analysis was performed by one way ANOVA. The effect of LAP was considered to be statistically significant when the difference of ALAT blood levels versus controls yields a p value at least lower than 0.05.

[9] = tested on: LPS-induced lethality in mice; assay: Potency of LAP in counteracting lethality induced by a DL100 dose of LPS (Example 3); type: in vivo, CD1 mice; conditions: for Lethality 24 h / Lethality 24 h (dead/total) / Lethality 48 h / Lethality 48 h (dead/total) / Lethality 72 h / Lethality 72 h (dead/total): LPS 1 mg/mouse
Excerpt: Synthetic peptide or Lajor Active Peptide (LAP) was synthesized chemically to produce the amino acid sequence of the previously-identified bioactive peptide contained in Fractions 2, 3 and 4 of the low molecular weight components of PLB. […] Mice treated with Fraction 4 prepared from PLB were used as positive controls.
Six weeks old female CD1 mice (Charles River, Calco, Italy) were used. The mice were allowed to adapt one week to their environment before commencing the study. They were kept under standard laboratory condition with ad libitum food and water.
The mice were injected i.p. with 1 mg of lipopolysaccharide (LPS) (Sigma Chimica, Milan, Italy). Mortality was recorded every 24 hours up to 72 hours after challenge with LPS.

Compound: CC[C@H](C)[C@H](NC(=O)[C@H](CCC(=O)O)NC(=O)[C@@H](NC(=O)[C@H](C)NC(=O)[C@H](CO)NC(=O)[C@@H](NC(=O)[C@@H](N)CC(N)=O)C(C)C)C(C)C)C(=O)N[C@@H](C)C(=O)O [LAP, NH2-NVSAVEIA-COOH] (H-NVSAVEIA-OH)
- tolerability of long-term administration (clinical appearance and behaviours) [1]: apparently well tolerated
- NOD mice that developed diabetes during the treatment period ([2]; early prophylaxis, 4 to 14 weeks of age, 2 of 8 vehicle controls): None and none
- insulitis score ([2]; early prophylaxis, 10 mcg daily six times weekly from 4 to 14 weeks of age, vehicle 2±0.9): 0.9±0.6
- azotemia and transaminases values vs controls ([2]; mice sacrificed at week 14): no differences
- reduction of TNF-α blood levels vs. controls ([3]; 2 hours after sublethal LPS (0.5 mg/mouse), p=0.01): 37.3%
- reduction of TNF-α blood levels vs. controls ([3]; 8 hours after sublethal LPS (0.5 mg/mouse), p=0.005): 76.5%
- CD4+CD25− T cell proliferation in response to antigen-pulsed APCs in the presence of the peptide ([4]; 5 days co-culture): inhibited
- T cell proliferation in response to APCs pre-treated with the peptide ([4]; APCs pre-treated for 24 hours): not affected
- LPS-induced blood levels of IFN-γ (in words) [5]: did not modify
- Lethality 72 h ([6]; 1 mcg at −24, −1 h): (79%)
- Lethality 72 h (dead/total) ([6]; 1 mcg at −24, −1 h): 11/14
- Lethality 72 h ([6]; 10 mcg at +1 h): (71%)
- Lethality 72 h (dead/total) ([6]; 10 mcg at +1 h): 10/14
- Lethality 72 h ([6]; 10 mcg at −1, +1 h): (14%)
- Lethality 72 h (dead/total) ([6]; 10 mcg at −1, +1 h): 2/14
- Lethality 72 h ([6]; 10 mcg at −24, −1 h): (14%)
- Lethality 72 h (dead/total) ([6]; 10 mcg at −24, −1 h): 2/14
- Lethality 72 h ([6]; 20 mcg at −1, +1 h): (100%)
- Lethality 72 h (dead/total) ([6]; 20 mcg at −1, +1 h): 14/14
- LPS-induced blood levels of IL-10 (in words) ([7]; 10 mcg LAP, 2 and 8 hours after LPS): did not modify
- mice with detectable levels of IL-10 in the blood ([7]; T0, 1 hour after 10 mcg LAP, before LPS, 0 out of 10 controls): 3 out of 10
- reduction of ALAT vs controls ([8]; 8 hours after Con A): 84.7%
- ALAT values ([8]; LAP 1 hour prior to and one hour after Con A, 8 hours after Con A, mean ± SD): 686 ± 197b U/L
- Lethality (dead before sacrifice/total) ([8]; LAP 1 hour prior to and one hour after Con A, within 8 hours): 1/15
- Lethality 24 h ([9]; 2.5 mcg at −24, −1 h): 10%
- Lethality 24 h (dead/total) ([9]; 2.5 mcg at −24, −1 h): (2/20)
- Lethality 48 h ([9]; 2.5 mcg at −24, −1 h): 35%
- Lethality 48 h (dead/total) ([9]; 2.5 mcg at −24, −1 h): (7/20)
- Lethality 72 h ([9]; 2.5 mcg at −24, −1 h): 80%
- Lethality 72 h (dead/total) ([9]; 2.5 mcg at −24, −1 h): (16/20)
- Lethality 24 h ([9]; 10 mcg at −24, −1 h): 10%
- Lethality 24 h (dead/total) ([9]; 10 mcg at −24, −1 h): (2/20)
- Lethality 48 h ([9]; 10 mcg at −24, −1 h): 35%
- Lethality 48 h (dead/total) ([9]; 10 mcg at −24, −1 h): (7/20)
- Lethality 72 h ([9]; 10 mcg at −24, −1 h): 50%
- Lethality 72 h (dead/total) ([9]; 10 mcg at −24, −1 h): (10/20) c
- kinetic and cumulative rate of lethality (in words) ([9]; different doses of LAP tested): unaffected
- cumulative rate of lethality (in words) ([9]; prophylactic treatment with 10 ucg): markedly reduced
